Reference: PubChem BioAssay AID1963851 (Molecular Pharmacology Branch, DTP, NCI, 2024)

System: 188146-221-R-J1-PDC complex spheroid viability
Assay: Anticancer human tumor 188146-221-R-J1-PDC patient-derived colon adenocarcinoma cell line growth inhibition [POLQ]
Conditions: for IC50: curve of first compound; for viability, T/C: stronger effect = lower value
Protocol: Multicellular complex tumor spheroid response to Polymerase (POL) inhibitors (novobiocin, ART-558, RP6685) in combination with a variety of drugs and investigational agents in selected tumor cell lines
The POL inhibitors (novobiocin, ART-558, and RP6685) were evaluated both individually and in combination with standard of care and investigational anticancer small molecules within a complex spheroid model of solid tumors. . Complex spheroids include a stromal component modeled by human endothelial cells (HUVEC) and fibroblasts modeled by human mesenchymal stem cells (MSCs). The concentration ranges selected for each drug and investigational agent were based upon clinically achievable concentrations if the clinical Cmax of the agent was known.
Compounds. The drugs and investigational agents: novobiocin (NSC847541), ART-558 (NSC835418), RP-6685 (NSC848927), peposertib (NSC802822), ceralasertib (NSC780249), elimusertib (NSC800525), camonsertib (NSC841442), AZD-1390 (NSC803789), olaparib (NSC753686), talazoparib (NSC767125), rucaparib (NSC756644), sotorasib (NSC818433), MRTX-1133 (NSC836407), SN-38 (NSC673596), topotecan (NSC609699), epotoside (NSC141540), doxorubicin (NSC123127), gemcitabine (NSC613327), 5-fluorouracil (NSC19893), paclitaxel (NSC125973), vemurafenib (NSC761431), MSA-2 (NSC828583), SN-011 (NSC837082), adavosertib (NSC754352), prexasertib (NSC758257), carboplatin (NSC241240) and oxaliplatin (NSC266046), were obtained from the National Cancer Institute (NCI) Developmental Therapeutics Program Chemical Repository (21). The FDA-approved anticancer drug set is available from the Developmental Therapeutics Program at https://dtp.cancer.gov/organization/dscb/obtaining/. […] The stock solutions were prepared in dimethyl sulfoxide (DMSO, Sigma-Aldrich, St. Louis, MO, cat. D2650), except for the platinum compounds which were prepared in saline (Quality Biological, Gaithersburg, MD, cat. 114-055-101), at 800-fold the tested concentration and stored at -70 degrees C prior to their use. All drugs and investigational agents were tested over a range starting from a high concentration at or near the clinical Cmax and decreasing in half-log increments. If the clinical Cmax for an agent had not been determined, the highest concentration tested was 10 microM, except for SN-38, which was tested at a high concentration of 1 microM.
Cell Culture. All cells were maintained in an incubator at 37 degrees C and 5% CO2 with 95% humidity. The PDC lines were cultured according to standard operating procedures established by the NCI PDMR (https://pdmr.cancer.gov). Table 3 of the manuscript, lists the cell lines along with the number of the three cell types plated to form the mct-spheroids and media for tumor cell growth. After thawing, all PDC lines, except 997537-175-T-J1-PDC and 415267-285-R-J2-PDC, were cultured in Matrigel-coated flasks prepared with a working solution of 1X Ham's F-12 nutrient mix, without supplementation (Thermo Fisher Scientific, cat. 11765054), 100 U/mL penicillin-streptomycin (Thermo Fisher Scientific, cat. 15140122), and 2.5% Matrigel (Corning Inc., Corning, NY, cat. 354248) for the first three passages. The two PDC lines 997537-175-T-J1-PDC and 415267-285-R-J2-PDC were cultured on uncoated flasks. The 857933-349-R-J2-PDC line was cultured in 6C/Colon 1B media containing advanced DMEM/F-12 (Thermo Fisher Scientific, cat. 12634028), 10 mM HEPES (Thermo Fisher Scientific, cat. 15630080), 1X GlutaMAX supplement (Thermo Fisher Scientific, cat. 35050061), 0.1 mg/mL primocin (InvivoGen, San Diego, CA, cat. ant-pm-2), 10% defined fetal bovine serum, heat inactivated (HyClone Laboratories Inc., Logan, UT, cat. SH30070.03HI), 50% L-WRN conditioned media (ATCC, cat. CRL-3276), 1.25 mM N-Acetyl-L-cysteine (Sigma-Aldrich, cat. A9165), 10 mM nicotinamide (Sigma-Aldrich, cat. N0636), 1X B-27 supplement (Thermo Fisher Scientific, cat. 17504044), 1X N-2 supplement (Thermo Fisher Scientific, cat. […]

[1] = second compound 0.0316 µM, first compound 0.0316 µM
[2] = second compound 0.0316 µM, first compound 0.1 µM
[3] = second compound 0.0316 µM, first compound 0.316 µM
[4] = second compound 0.0316 µM, first compound 1 µM
[5] = second compound 0.0316 µM, first compound 3.16 µM
[6] = second compound 0.0316 µM, first compound 10 µM
[7] = second compound 0.1 µM, first compound 0.0316 µM
[8] = second compound 0.1 µM, first compound 0.1 µM
[9] = second compound 0.1 µM, first compound 0.316 µM
[10] = second compound 0.1 µM, first compound 1 µM
[11] = second compound 0.1 µM, first compound 3.16 µM
[12] = second compound 0.1 µM, first compound 10 µM
[13] = second compound 0.316 µM, first compound 0.0316 µM
[14] = second compound 0.316 µM, first compound 0.1 µM
[15] = second compound 0.316 µM, first compound 0.316 µM
[16] = second compound 0.316 µM, first compound 1 µM
[17] = second compound 0.316 µM, first compound 3.16 µM
[18] = second compound 0.316 µM, first compound 10 µM
[19] = second compound 1 µM, first compound 0.0316 µM
[20] = second compound 1 µM, first compound 0.1 µM
[21] = second compound 1 µM, first compound 0.316 µM
[22] = second compound 1 µM, first compound 1 µM
[23] = second compound 1 µM, first compound 3.16 µM
[24] = second compound 1 µM, first compound 10 µM
[25] = second compound 3.16 µM, first compound 0.0316 µM
[26] = second compound 3.16 µM, first compound 0.1 µM
[27] = second compound 3.16 µM, first compound 0.316 µM
[28] = second compound 3.16 µM, first compound 1 µM
[29] = second compound 3.16 µM, first compound 3.16 µM
[30] = second compound 3.16 µM, first compound 10 µM
[31] = second compound 10 µM, first compound 0.0316 µM
[32] = second compound 10 µM, first compound 0.1 µM
[33] = second compound 10 µM, first compound 0.316 µM
[34] = second compound 10 µM, first compound 1 µM
[35] = second compound 10 µM, first compound 3.16 µM
[36] = second compound 10 µM, first compound 10 µM
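Also: spheroids exposed to compounds for seven days.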
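For viability, T/C in this document: 100% = DMSO vehicle control viability.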

CC(=O)O[C@H]1C(=O)[C@@]2(C)[C@H]([C@H](OC(=O)c3ccccc3)[C@]3(O)C[C@H](OC(=O)[C@H](O)[C@@H](NC(=O)c4ccccc4)c4ccccc4)C(C)=C1C3(C)C)[C@]1(OC(C)=O)CO[C@@H]1C[C@@H]2O + COC1C(OC(N)=O)C(O)C(Oc2ccc3c(O)c(NC(=O)c4ccc(O)c(CC=C(C)C)c4)c(=O)oc3c2C)OC1(C)C
IC50 (second compound 0.0316 µM): 0.0164 µM | IC50 (second compound 0.1 µM): 0.0172 µM | IC50 (second compound 0.316 µM): 0.0168 µM | IC50 (second compound 1 µM): 0.0144 µM | IC50 (second compound 3.16 µM): 0.0172 µM | IC50 (second compound 10 µM): 0.016 µM | viability, T/C (second compound 0.0316 µM, first compound 0.00949 µM): 76% | viability, T/C (second compound 0.0316 µM, first compound 0.03 µM): 21% | viability, T/C (second compound 0.0316 µM, first compound 0.0949 µM): 10.8% | viability, T/C (second compound 0.0316 µM, first compound 0.3 µM): 10.2% | viability, T/C (second compound 0.0316 µM, first compound 0.949 µM): 10.4% | viability, T/C (second compound 0.0316 µM, first compound 3 µM): 9.91% | viability, T/C (second compound 0.1 µM, first compound 0.00949 µM): 80.1% | viability, T/C (second compound 0.1 µM, first compound 0.03 µM): 21.7% | viability, T/C (second compound 0.1 µM, first compound 0.0949 µM): 12.2% | viability, T/C (second compound 0.1 µM, first compound 0.3 µM): 9.8% | viability, T/C (second compound 0.1 µM, first compound 0.949 µM): 8.82% | viability, T/C (second compound 0.1 µM, first compound 3 µM): 9.35% | viability, T/C (second compound 0.316 µM, first compound 0.00949 µM): 75.9% | viability, T/C (second compound 0.316 µM, first compound 0.03 µM): 24.3% | viability, T/C (second compound 0.316 µM, first compound 0.0949 µM): 9.19% | viability, T/C (second compound 0.316 µM, first compound 0.3 µM): 11.9% | viability, T/C (second compound 0.316 µM, first compound 0.949 µM): 9.74% | viability, T/C (second compound 0.316 µM, first compound 3 µM): 11.2% | viability, T/C (second compound 1 µM, first compound 0.00949 µM): 66.3% | viability, T/C (second compound 1 µM, first compound 0.03 µM): 21.7% | viability, T/C (second compound 1 µM, first compound 0.0949 µM): 10.2% | viability, T/C (second compound 1 µM, first compound 0.3 µM): 10% | viability, T/C (second compound 1 µM, first compound 0.949 µM): 10.6% | viability, T/C (second compound 1 µM, first compound 3 µM): 9.98% | viability, T/C (second compound 3.16 µM, first compound 0.00949 µM): 84% | viability, T/C (second compound 3.16 µM, first compound 0.03 µM): 18.2% | viability, T/C (second compound 3.16 µM, first compound 0.0949 µM): 12.6% | viability, T/C (second compound 3.16 µM, first compound 0.3 µM): 8.24% | viability, T/C (second compound 3.16 µM, first compound 0.949 µM): 11.4% | viability, T/C (second compound 3.16 µM, first compound 3 µM): 10.8% | viability, T/C (second compound 10 µM, first compound 0.00949 µM): 75.6% | viability, T/C (second compound 10 µM, first compound 0.03 µM): 19.2% | viability, T/C (second compound 10 µM, first compound 0.0949 µM): 11.2% | viability, T/C (second compound 10 µM, first compound 0.3 µM): 9.41% | viability, T/C (second compound 10 µM, first compound 0.949 µM): 12.8% | viability, T/C (second compound 10 µM, first compound 3 µM): 11.8%

COc1cccc2c1C(=O)c1c(O)c3c(c(O)c1C2=O)CC(O)(C(=O)CO)CC3OC1CC(N)C(O)C(C)O1 (stereo unspecified) + COC1C(OC(N)=O)C(O)C(Oc2ccc3c(O)c(NC(=O)c4ccc(O)c(CC=C(C)C)c4)c(=O)oc3c2C)OC1(C)C
IC50 (second compound 0.0316 µM): 0.154 µM | IC50 (second compound 0.1 µM): 0.143 µM | IC50 (second compound 0.316 µM): 0.162 µM | IC50 (second compound 1 µM): 0.145 µM | IC50 (second compound 3.16 µM): 0.106 µM | IC50 (second compound 10 µM): 0.151 µM | viability, T/C [1]: 90.2% | viability, T/C [2]: 59.5% | viability, T/C [3]: 33.8% | viability, T/C [4]: 13.1% | viability, T/C [5]: 0.29% | viability, T/C [6]: 0.43% | viability, T/C [7]: 91.8% | viability, T/C [8]: 57.5% | viability, T/C [9]: 32.5% | viability, T/C [10]: 11.4% | viability, T/C [11]: 0.37% | viability, T/C [12]: 0.4% | viability, T/C [13]: 92.7% | viability, T/C [14]: 61.1% | viability, T/C [15]: 34% | viability, T/C [16]: 16.4% | viability, T/C [17]: 0.2% | viability, T/C [18]: 0.41% | viability, T/C [19]: 94.9% | viability, T/C [20]: 54% | viability, T/C [21]: 40.1% | viability, T/C [22]: 9.16% | viability, T/C [23]: 0.41% | viability, T/C [24]: 0.44% | viability, T/C [25]: 85.3% | viability, T/C [26]: 47.1% | viability, T/C [27]: 35.4% | viability, T/C [28]: 8.24% | viability, T/C [29]: 0.22% | viability, T/C [30]: 0.55% | viability, T/C [31]: 77.9% | viability, T/C [32]: 56.6% | viability, T/C [33]: 36.5% | viability, T/C [34]: 9.76% | viability, T/C [35]: 0.33% | viability, T/C [36]: 0.51%

O=c1[nH]cc(F)c(=O)[nH]1 + COC1C(OC(N)=O)C(O)C(Oc2ccc3c(O)c(NC(=O)c4ccc(O)c(CC=C(C)C)c4)c(=O)oc3c2C)OC1(C)C
IC50 (second compound 0.0316 µM): 1.01 µM | IC50 (second compound 0.1 µM): 1.24 µM | IC50 (second compound 0.316 µM): 0.925 µM | IC50 (second compound 1 µM): 0.984 µM | IC50 (second compound 3.16 µM): 1.79 µM | IC50 (second compound 10 µM): 1.5 µM | viability, T/C [1]: 107% | viability, T/C [2]: 106% | viability, T/C [3]: 72.7% | viability, T/C [4]: 53.1% | viability, T/C [5]: 39.8% | viability, T/C [6]: 34.9% | viability, T/C [7]: 95.2% | viability, T/C [8]: 102% | viability, T/C [9]: 75.4% | viability, T/C [10]: 53.7% | viability, T/C [11]: 41.4% | viability, T/C [12]: 35% | viability, T/C [13]: 95.8% | viability, T/C [14]: 98.5% | viability, T/C [15]: 75.4% | viability, T/C [16]: 49.3% | viability, T/C [17]: 37.6% | viability, T/C [18]: 36.6% | viability, T/C [19]: 111% | viability, T/C [20]: 101% | viability, T/C [21]: 72.4% | viability, T/C [22]: 49.6% | viability, T/C [23]: 43.8% | viability, T/C [24]: 36% | viability, T/C [25]: 102% | viability, T/C [26]: 92.3% | viability, T/C [27]: 76% | viability, T/C [28]: 52.1% | viability, T/C [29]: 49% | viability, T/C [30]: 41.3% | viability, T/C [31]: 97% | viability, T/C [32]: 90.2% | viability, T/C [33]: 80.7% | viability, T/C [34]: 53.3% | viability, T/C [35]: 43.2% | viability, T/C [36]: 40.6%
